Read-outs that look alike come from different tables or passages of the source.
Key:
PHH 2D sandwich cultures = details: cited from earlier work
[1] = cited from earlier work; for Extent of hepatic metabolism: ref DrugBank and Prescribers' Digital Reference database
[2] = cited from earlier work
clinical DILI in man = details: cited from earlier work
[3] = system: primary human hepatocytes (PHH) 3D spheroids
[4] = PHH 2D sandwich cultures, 100x Cmax, ref Xu 2008
[5] = therapeutic total cmax, ref PMID
[6] = clinical DILI classification in man (POS/NEG)
[7] = clinical DILI classification used in this study, Supplementary Table 2, ref Chen et al., 2011, Guo et al., 2005, O'Brien et al., 2006, Sakatis et al., 2012, Suzuki et al., 2010, Xu et al., 2008
[8] = clinical DILI classification, Supplementary Table 1, ref Chen et al., 2011, Guo et al., 2005, O'Brien et al., 2006, Sakatis et al., 2012, Suzuki et al., 2010, Xu et al., 2008
[9] = reported pattern of liver damage, Supplementary Table 2, ref literature
[10] = DILI classification score, ref Suzuki et al. (2010)
[11] = FDA drug labeling DILI score, ref Chen et al., 2011
[12] = clinical DILI classification, ref Xu et al. (2008)

Row | Compound | 2Dsw (Xu 2008) 100x (PHH 2D sandwich cultures; [4]) | Extent of hepatic metabolism [1] | Cmax [2, 5] [nM] | DILI in vivo (clinical DILI in man; [6]) | Classified as (clinical DILI in man; [7]) | DILI in vivo (clinical DILI in man; [8]) | Type of DILI (clinical DILI in man; [9]) | Chemically defined spheroids (this study) 20x [3] | Classified as (clinical DILI in man; in vivo) | Clinical DILI class (panel heading of Figure 4) (clinical DILI in man; in vivo) | DILI in vivo (clinical DILI in man; in vivo) | FDA (0-8) (clinical DILI in man; in vivo) | Type of DILI (clinical DILI in man; in vivo) | Xu et al. (2008) (clinical DILI in man; in vivo) | other results
1 | C[C@H](CCC(=O)O)[C@H]1CC[C@H]2[C@@H]3[C@H](O)C[C@@H]4C[C@H](O)CC[C@]4(C)[C@H]3CC[C@]12C [Chenodiol] | Positive | Extensive | 8000 | POS | POS | POS | Cholestatic injury | Positive | – | – | – | – | – | – | –
2 | Cc1cc(C2CCCCC2)n(O)c(=O)c1 [Ciclopirox] | Negative | Extensive | 373 | NEG | NEG | NEG | Non-hepatotoxic | Negative | – | – | – | – | – | – | –
3 | NCCc1ccc(O)c(O)c1 [Dopamine] | Negative | Extensive | 121 | – | – | – | – | Negative | NEG | DILI negative | NEG | 0 | Non-hepatotoxic | Negative | –
4 | NCC1(CC(=O)O)CCCCC1 [Gabapentin] | – | Minimal | – | NEG | NEG | NEG | Non-hepatotoxic | Negative | – | – | – | – | – | – | 2Dsw (Xu 2008) 100x (PHH 2D sandwich cultures): Negative; Cmax ([2]; human, in vivo): 14400 nM; Suzuki et al. (2010) (clinical DILI in man; [10]): 1; FDA (0-8) (clinical DILI in man; [11]): 3; Xu et al. (2008) (clinical DILI in man; [12]): Negative
5 | O=C(OCC(O)CO)c1ccccc1Nc1ccnc2cc(Cl)ccc12 (centres unmarked) [Glafenine] | Negative | Extensive | 1880 | – | – | – | – | Negative | POS | Severe DILI | POS | Withdrawn | Hepatocellular injury | Positive | FDA (Severity) (clinical DILI in man; in vivo): most DILI concern; Sakatis et al. (2012) (clinical DILI in man; in vivo): Hepatotoxic
6 | CC(C)NCC(O)c1ccc(O)c(O)c1 (centres unmarked) [Isoproterenol] | Negative | Moderate | 2020 | – | – | – | – | Negative | NEG | DILI negative | NEG | 0 | Non-hepatotoxic | Negative | O'Brien et al. (2003) (clinical DILI in man; in vivo): Non-toxic
7 | Sc1ncnc2nc[nH]c12 [Mercaptopurine] | Negative | Extensive | 480 | – | – | – | – | Positive | POS | Severe DILI | POS | 8 | Cholestatic injury or Mixed hepatitis | Positive | FDA (Severity) (clinical DILI in man; in vivo): most DILI concern; Guo et al. (2005) (clinical DILI in man; in vivo): 3; O'Brien et al. (2003) (clinical DILI in man; in vivo): Severely; Sakatis et al. (2012) (clinical DILI in man; in vivo): Hepatotoxic; Suzuki et al. (2010) (clinical DILI in man; in vivo): 2
8 | Nc1ccc(/N=N/c2ccccc2)c(N)n1 [Phenazopyridine] | Negative | Moderate | 110 | POS | POS | POS | Hepatocellular injury | Negative | – | – | – | – | – | – | –
9 | NNCCc1ccccc1 [Phenelzine] | Negative | Extensive | 85 | – | – | – | – | Negative | NEG | DILI negative | NEG | 3 | Non-hepatotoxic | Negative | Sakatis et al. (2012) (clinical DILI in man; in vivo): Hepatotoxic
10 | O=C1NC(=O)C(c2ccccc2)(c2ccccc2)N1 [Phenytoin] | Positive | Extensive | 21700 | – | – | – | – | Negative | POS | Severe DILI | POS | 8 | Hepatocellular injury or Mixed hepatitis | Positive | FDA (Severity) (clinical DILI in man; in vivo): less DILI concern; Guo et al. (2005) (clinical DILI in man; in vivo): 2; Sakatis et al. (2012) (clinical DILI in man; in vivo): Hepatotoxic; Suzuki et al. (2010) (clinical DILI in man; in vivo): 2
11 | CC[C@@H]1C(=O)OC[C@@H]1Cc1cncn1C [Pilocarpine] | Negative | Minimal | 84 | NEG | NEG | NEG | Non-hepatotoxic | Negative | – | – | – | – | – | – | FDA (0-8) (clinical DILI in man; [11]): 3; Xu et al. (2008) (clinical DILI in man; [12]): Negative
12 | COc1cc(NC(C)CCCN)c2ncccc2c1 (centres unmarked) [Primaquine] | Negative | Extensive | 1080 | NEG | NEG | NEG | Non-hepatotoxic | Negative | – | – | – | – | – | – | FDA (Severity) (clinical DILI in man; FDA drug labeling DILI concern, ref Chen et al., 2011): no DILI concern; FDA (0-8) (clinical DILI in man; [11]): 0; Xu et al. (2008) (clinical DILI in man; [12]): Negative; Clinical DILI classification (Figure 5) (clinical DILI in man; structural analogue pairs, Figure 5, ref Chen et al., 2011, Xu et al., 2008 and others): DILI negative; hepatotoxicity evaluation in CD-spheroids [3]: did not cause apparent toxicity at any concentration tested
13 | Cc1ncc(CO)c(CO)c1O [Pyridoxine] | Negative | Extensive | 122 | – | – | – | – | Negative | NEG | DILI negative | NEG | 0 | Non-hepatotoxic | Negative | O'Brien et al. (2003) (clinical DILI in man; in vivo): Non-toxic
14 | CCOC(=O)[C@H](CCc1ccccc1)N[C@@H](C)C(=O)N1Cc2ccccc2C[C@H]1C(=O)O [Quinapril] | Negative | Moderate | 1200 | POS | POS | POS | Cholestatic injury | Negative | – | – | – | – | – | – | Guo et al. (2005) (clinical DILI in man; DILI classification score, ref Guo et al. (2005)): 3; Suzuki et al. (2010) (clinical DILI in man; [10]): 1; FDA (0-8) (clinical DILI in man; [11]): 3; Xu et al. (2008) (clinical DILI in man; [12]): Positive
15 | Cc1nc2n(c(=O)c1CCN1CCC(c3noc4cc(F)ccc34)CC1)CCCC2 [Risperidone] | Negative | Extensive | 80 | – | – | – | – | Negative | POS | High DILI concern | POS | 3 | Hepatocellular injury, Cholestatic injury or Mixed hepatitis | Positive | first pass metabolism ([1]; ref Madden et al., 1995, El-Hage and Surguladze, 2010, Rawden et al., 2000, Villaverde et al.): extensive first pass metabolism; Guo et al. (2005) (clinical DILI in man; in vivo): 2; Suzuki et al. (2010) (clinical DILI in man; in vivo): 1
